Measurements from patent US6649628B1, “N-[2-hydroxy-3-(1-piperidinyl)propoxy]pyridine-1-oxide-3-carboximidoyl chloride and its use in the treatment of insulin resistance” (Biorex Kutato es Fejleszto RT, priority 1999, dated 2003).
Marks after values point to notes of the source that are not given here.

Test system: STZ diabetic Wistar rats
Assay: Preliminary test: N-oxide derivatives of bimoclomol on motor and sensor nerve conduction velocity deficit
Format: in vivo, rat
Details: for Improvement of nerve conduction velocity (%) motor (MNCV) / Improvement of nerve conduction velocity (%) sensor (SNCV): 5 mg/kg
Experimental: In a preliminary test the effectiveness of the three N-oxide derivatives of bimoclomol on motor and sensor neuropathy in STZ diabetic Wistar rats were studied. The effectiveness of the three bimoclomol N-oxide derivatives in improving the peripheral motor and sensor nerve conduction velocity deficit caused by streptozotocine-induced diabetes was determined with use of the method described in detail in Experiment 2.
(Graphpad Instat, San Diego, Calif.).

| Compound | Improvement of nerve conduction velocity (%) motor (MNCV) | Improvement of nerve conduction velocity (%) sensor (SNCV) | effect on the motor and sensor neuropathy compared with bimoclomol (N-oxide derivatives 5 mg/kg vs bimoclomol 20 mg/kg) |
| --- | --- | --- | --- |
| [O-][n+]1cccc(C(Cl)=NOCC(O)CN2CCCCC2)c1 (centres unmarked) [N-[2-hydroxy-3-(1-piperidinyl)-1-propoxy]-pyridine-1-oxide-3-carboximidoyl chloride] | 66,5% | 63,4% | equivalent with bimoclomol |
| [O-][n+]1cccc(C(Cl)=NOCC(O)C[N+]2([O-])CCCCC2)c1 (centres unmarked) [double N-oxide derivative of bimoclomol] | 25,9* % | 29,1** % | – |
